Experimental findings from article PMC11277056, “Effects of SRI-32743, a Novel Quinazoline Structure-Based Compound, on HIV-1 Tat and Cocaine Interaction with Norepinephrine Transporter” (International Journal of Molecular Sciences, 2024) are described below.

Holding throughout (assay type): cell-based
The target of test [1] is T1, norepinephrine transporter (hNET) (Homo sapiens, UniProt P23975).
T1 construct: gene SLC6A2; WT hNET
The test is described as follows: [3H]MPP+ preloading and efflux in CHO cells expressing WT hNET.

The target in test [2] is T2, dopamine transporter (hDAT) (Homo sapiens, UniProt Q01959).
T2 construct: gene SLC6A3; WT hDAT
T2 sequence (Q01959 whole entry): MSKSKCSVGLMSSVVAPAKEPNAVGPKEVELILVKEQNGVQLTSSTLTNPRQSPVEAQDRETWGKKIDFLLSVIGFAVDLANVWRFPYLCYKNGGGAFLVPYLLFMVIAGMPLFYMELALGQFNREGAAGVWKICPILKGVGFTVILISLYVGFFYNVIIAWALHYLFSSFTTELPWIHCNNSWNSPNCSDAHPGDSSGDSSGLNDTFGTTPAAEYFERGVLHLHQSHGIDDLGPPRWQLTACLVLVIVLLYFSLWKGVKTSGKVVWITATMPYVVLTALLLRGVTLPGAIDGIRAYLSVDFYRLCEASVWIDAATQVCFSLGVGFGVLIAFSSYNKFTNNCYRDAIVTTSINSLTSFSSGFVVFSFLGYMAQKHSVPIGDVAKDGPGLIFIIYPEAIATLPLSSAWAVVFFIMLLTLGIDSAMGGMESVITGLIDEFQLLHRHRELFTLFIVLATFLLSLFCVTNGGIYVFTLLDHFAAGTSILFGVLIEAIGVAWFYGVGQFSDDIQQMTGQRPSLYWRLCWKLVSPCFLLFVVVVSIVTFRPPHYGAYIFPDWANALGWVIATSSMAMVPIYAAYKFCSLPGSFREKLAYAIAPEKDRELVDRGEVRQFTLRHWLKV
The test is described as follows: [3H]DA uptake inhibition in CHO-K1 cells expressing WT hDAT.

Test [3] concerns the target T1, norepinephrine transporter (hNET). The experiment in a line: [3H]Nisoxetine competition binding in intact CHO-K1 cells; also [3H]DA uptake inhibition (IC50 […]) and slowed [3H]Nisoxetine dissociation.

T1 sequence (P23975 whole entry): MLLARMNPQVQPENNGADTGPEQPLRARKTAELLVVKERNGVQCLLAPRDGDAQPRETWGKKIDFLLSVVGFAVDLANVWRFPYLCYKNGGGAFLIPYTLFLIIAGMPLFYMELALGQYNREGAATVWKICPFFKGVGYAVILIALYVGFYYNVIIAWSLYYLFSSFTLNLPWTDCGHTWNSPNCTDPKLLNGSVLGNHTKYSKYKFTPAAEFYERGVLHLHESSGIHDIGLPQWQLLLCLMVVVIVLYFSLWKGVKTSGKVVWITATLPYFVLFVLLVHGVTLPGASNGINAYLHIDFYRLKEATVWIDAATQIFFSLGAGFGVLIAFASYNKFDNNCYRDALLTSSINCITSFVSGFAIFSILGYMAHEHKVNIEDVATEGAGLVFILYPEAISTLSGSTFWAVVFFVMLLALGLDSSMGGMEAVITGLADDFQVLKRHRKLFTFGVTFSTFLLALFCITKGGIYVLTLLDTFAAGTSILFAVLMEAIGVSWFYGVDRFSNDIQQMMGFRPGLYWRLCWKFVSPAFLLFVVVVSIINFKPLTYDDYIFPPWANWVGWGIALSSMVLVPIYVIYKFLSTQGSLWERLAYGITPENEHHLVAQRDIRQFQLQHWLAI

Take `C[n+]1ccc(-c2ccccc2)cc1` [MPP+, N-methyl-4-phenylpyridinium]: the “[3H]MPP+ preloading and efflux in CHO cells expressing WT hNET” value in test [1] is “decreased both basal [^3H]DA and [^3H]MPP^+ efflux via WT hNET compared with the control”. Take SRI-32743: the IC50 is 8.16 ± 1.16 µM in test [2] and 26.4 ± 5.17 µM in test [3].
